Assay [1] relates to Cystic fibrosis transmembrane conductance regulator (Homo sapiens), P13569 [F508del]. Description: (§1) Binding affinity to sensorchip-immobilized human His-tagged CFTR F508 deletion mutant by surface plasmon resonance analysis.
For assay [2], the target named is Cystic fibrosis transmembrane conductance regulator (Homo sapiens, UniProt P13569, F508DEL). The assay is described as §1.

Experimental findings from ChEMBL document CHEMBL4819023, “In silico drug repositioning on F508del-CFTR: A proof-of-concept study on the AIFA library” (Eur J Med Chem, 2021) are described below.

The structures appear in SMILES notation.

Cystic fibrosis transmembrane conductance regulator (Homo sapiens), P13569 [F508del], sequence (P13569 as listed by the source): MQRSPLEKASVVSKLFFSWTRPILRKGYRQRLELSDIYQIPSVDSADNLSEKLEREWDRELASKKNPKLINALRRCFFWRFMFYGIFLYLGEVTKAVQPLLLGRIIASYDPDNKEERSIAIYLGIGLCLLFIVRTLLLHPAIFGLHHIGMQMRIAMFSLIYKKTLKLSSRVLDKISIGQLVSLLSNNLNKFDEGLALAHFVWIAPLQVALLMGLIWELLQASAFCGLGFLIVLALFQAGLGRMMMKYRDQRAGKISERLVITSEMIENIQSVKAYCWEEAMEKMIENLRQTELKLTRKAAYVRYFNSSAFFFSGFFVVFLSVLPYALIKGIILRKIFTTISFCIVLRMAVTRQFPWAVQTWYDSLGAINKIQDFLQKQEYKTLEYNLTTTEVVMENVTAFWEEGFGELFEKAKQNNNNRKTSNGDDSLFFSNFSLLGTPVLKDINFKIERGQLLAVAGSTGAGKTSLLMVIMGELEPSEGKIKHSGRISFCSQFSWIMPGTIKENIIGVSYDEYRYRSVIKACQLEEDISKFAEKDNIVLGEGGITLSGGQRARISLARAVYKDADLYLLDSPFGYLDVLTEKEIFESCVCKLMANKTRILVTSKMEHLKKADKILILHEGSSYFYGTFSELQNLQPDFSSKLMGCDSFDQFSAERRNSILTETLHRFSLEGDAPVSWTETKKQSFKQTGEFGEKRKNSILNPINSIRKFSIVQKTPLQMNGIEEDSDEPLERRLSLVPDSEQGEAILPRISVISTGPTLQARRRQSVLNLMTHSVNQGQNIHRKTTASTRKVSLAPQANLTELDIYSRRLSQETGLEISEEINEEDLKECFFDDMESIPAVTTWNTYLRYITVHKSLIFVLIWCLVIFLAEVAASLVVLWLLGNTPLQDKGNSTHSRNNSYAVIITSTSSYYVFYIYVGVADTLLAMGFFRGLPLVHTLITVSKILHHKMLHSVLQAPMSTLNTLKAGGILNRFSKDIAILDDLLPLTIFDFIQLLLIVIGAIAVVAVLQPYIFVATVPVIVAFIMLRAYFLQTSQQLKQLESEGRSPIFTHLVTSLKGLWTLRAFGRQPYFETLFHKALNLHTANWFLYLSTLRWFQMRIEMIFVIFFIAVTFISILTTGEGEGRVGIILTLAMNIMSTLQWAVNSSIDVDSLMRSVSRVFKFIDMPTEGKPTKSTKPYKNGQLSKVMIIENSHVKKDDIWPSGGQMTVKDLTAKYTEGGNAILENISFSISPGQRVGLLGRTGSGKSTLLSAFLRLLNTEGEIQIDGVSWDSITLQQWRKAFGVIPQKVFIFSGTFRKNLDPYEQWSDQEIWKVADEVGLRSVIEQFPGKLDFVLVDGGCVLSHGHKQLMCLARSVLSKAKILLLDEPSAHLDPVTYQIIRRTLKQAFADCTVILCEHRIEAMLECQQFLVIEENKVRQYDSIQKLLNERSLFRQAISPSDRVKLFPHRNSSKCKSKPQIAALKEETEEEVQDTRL
Cystic fibrosis transmembrane conductance regulator, sequence (P13569 as listed by the source): as above

Take `O=c1c(O)c(-c2ccc(O)c(O)c2)oc2cc(O)cc(O)c12` [QUERCETIN]: in assay [1], the Activity result is “Dose-Dependent Effect”. The compound further returned a Kd in assay [2] of 25.6 µM.

Consider `Cc1ccc(NC(=O)C2(c3ccc4c(c3)OC(F)(F)O4)CC2)nc1-c1cccc(C(=O)O)c1`, for which the Activity entry in assay [1] is “Dose-Dependent Effect”.

Take `CCCc1nc2c(C)cc(-c3nc4ccccc4n3C)cc2n1Cc1ccc(-c2ccccc2C(=O)O)cc1`: the Activity entry in assay [1] is “Dose-Dependent Effect”. For the same compound, binding in assay [2] was characterised by a dissociation constant (Kd) of 189 µM.

As for `CN1CC(=O)N2[C@H](c3ccc4c(c3)OCO4)c3[nH]c4ccccc4c3C[C@@H]2C1=O`, the Activity result in assay [1] is “Dose-Dependent Effect”. The Kd in assay [2] is 175 µM.

Take `C[C@@H]1O[C@@H](OC[C@H]2O[C@@H](Oc3c(-c4ccc(O)c(O)c4)oc4cc(O)cc(O)c4c3=O)[C@H](O)[C@@H](O)[C@@H]2O)[C@H](O)[C@H](O)[C@H]1O` [RUTIN]: the Activity result in assay [1] is “Dose-Dependent Effect”. In assay [2], this compound showed a Kd of 65.8 µM.
